Data taken from US4512986A, “Progrestationally active steroids” (priority 1983, dated 1985).

Legend:
[1] = target: T1, Cytosol Progesterone Receptor of the Estrogen-primed Immature Rabbit Uterus (Oryctolagus cuniculus, UniProt P06186); assay: Relative binding affinity for progesterone receptor (competition with 3H-progesterone); set-up: species or system rabbit (New Zealand White); settings: for RBA: 16-18 hour incubation, progesterone = 100
T1 construct: cytosol progesterone receptor of the estrogen-primed immature rabbit uterus; tissue Dutchland Laboratories, Inc., Denver, Pa (animals); host or cells: uterus cytosol of estradiol-treated immature female New Zealand White rabbits
T1 sequence (P06186 1-930): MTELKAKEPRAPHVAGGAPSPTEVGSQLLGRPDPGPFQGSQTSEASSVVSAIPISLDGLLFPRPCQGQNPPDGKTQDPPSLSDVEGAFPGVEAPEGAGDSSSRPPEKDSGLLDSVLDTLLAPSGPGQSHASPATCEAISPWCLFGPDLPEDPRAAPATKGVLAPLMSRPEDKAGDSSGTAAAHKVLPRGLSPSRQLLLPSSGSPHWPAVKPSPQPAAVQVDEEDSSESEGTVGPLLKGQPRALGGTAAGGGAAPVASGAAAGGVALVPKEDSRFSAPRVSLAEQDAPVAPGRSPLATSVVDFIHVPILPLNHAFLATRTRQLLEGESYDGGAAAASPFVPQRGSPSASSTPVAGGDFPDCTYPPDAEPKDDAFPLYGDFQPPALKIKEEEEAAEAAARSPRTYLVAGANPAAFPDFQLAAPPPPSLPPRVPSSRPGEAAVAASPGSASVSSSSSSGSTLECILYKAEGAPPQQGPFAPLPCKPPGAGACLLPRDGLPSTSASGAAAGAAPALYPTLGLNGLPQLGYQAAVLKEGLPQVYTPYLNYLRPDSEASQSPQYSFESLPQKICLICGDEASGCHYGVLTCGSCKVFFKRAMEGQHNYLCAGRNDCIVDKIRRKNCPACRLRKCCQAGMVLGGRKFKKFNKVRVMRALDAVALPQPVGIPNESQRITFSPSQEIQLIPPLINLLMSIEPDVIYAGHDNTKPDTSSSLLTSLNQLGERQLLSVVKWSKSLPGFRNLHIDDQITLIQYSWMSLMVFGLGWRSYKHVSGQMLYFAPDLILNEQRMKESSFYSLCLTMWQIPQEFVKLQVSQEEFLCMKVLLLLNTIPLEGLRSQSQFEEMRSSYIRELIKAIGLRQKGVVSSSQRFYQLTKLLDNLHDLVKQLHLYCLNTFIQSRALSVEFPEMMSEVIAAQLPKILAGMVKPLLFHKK
Protocol: RBA values recorded at 0° C. after short incubation times (e.g., 2 hr) mainly reflect differences in the association rate constants of the competing ligands, whereas those measured after long incubation times (e.g., 16 to 24 hr) and/or higher temperatures predominantly are influenced by differences in the dissociation rate constants of the competing ligands. RBA's determined after short incubation times primarily reflect the association of the competitor compared to the natural hormone. Conversely, RBA's measured after long incubation times reflect the dissociation rate of the competitor compared to the natural hormone.
The assay components are combined, allowed to equilibrate, and unbound radioactivity removed by charcoal adsorption.
Animal species. Immature female New Zealand White rabbits weighing 0.8 to 1.0 kg (Dutchland Laboratories, Inc., Denver, Pa).
Pretreatment. Subcutaneous treatment with 15 μg 17β-estradiol/0.6 ml sesame oil each morning (0830 to 0930 hr) for three days. Animals sacrificed 24 hr after final injection.
Tissue. Uterus; each uterus weighed about 1.0 g and two or three uteri were pooled for each assay.
Buffer. (A) 0.01M TES, pH 7.4, 1 mM EDTA, 0.012M thioglycerol and 30% glycerol for cytosol preparation and ^3 H-steroid, unlabeled hormone and compound solutions. (B) 0.01M TES, pH 7.4, 1 mM EDTA and 0.012M thioglycerol for charcoal solution.
Homogenization. Five or six 5-second bursts with 30 second cooling periods between bursts using Brinkman Polytron Pt. 10 at 3.5 rheostat setting.
Temperature. 0°-4° C. for all steps.
Centrifugation. 45,000 rpm for 1 hr, 50 Ti rotor, Beckman L8-80 ultracentrifuge.
Incubation. 16-18 hr at 4°-6° C.
Concentations. 1×10^-10 M to 1×10^-5 M (7 concentrations).
Method. Charcoal adsorption method used to remove unbound radioactivity. Five-tenths ml of dextran-coated charcoal (0.5% Norit A and 0.05% dextran T-70) added to all tubes except total radioactivity tubes (0.5 ml buffer [B] added), tubes vortexed 3-5 sec, allowed to sit for 10 minutes and centrifuged 10 minutes at 2000 rpm in Beckman TJ-6 centrifuge at 0°-4° C.
Data Interpretation. […] The relative binding affinity (RBA) of each compound was calculated by using the following equation. [formula] where

[2] = test system: uterine endometrium of estrone-primed immature rabbits; assay: Clauberg assay (progestational activity, McPhail); type: in vivo, rabbit (New Zealand White); settings: for McPhail Index (0-4) (X ± S.D.): 0 none, 4 maximal
[3] = test system: androgen target organs of castrate immature male rats; assay: Anti-androgenic activity in the castrate immature rat assay; type: in vivo; settings: testosterone alone sc
Protocol: The oral anti-androgenic activity of 6-methyl-6-dehydro-17α-ethynylprogesterone was evaluated in the castrate immature male rat assay [Lerner et al., Proc. Soc. […] The assay is briefly described in the footnotes to Table 11.
*This assay employs castrate immature rats. For methods refer to Lerner,
L. J., A. Bianchi and A. Borman, Proc. Soc.
**Groups of rats (7/group) were given daily injections of 0.3 ml sesame
oil (control) or compound (in 0.3 ml sesame oil) for 7 days. Some groups
also concurrently received progestational compounds by the sc or oral
route of administration in order to evaluate antiandrogenic activity. One
day after the final doses, the animals were sacrificed and the androgen
target organs indicated were weighed.
***Statistically significant (p < 0.05) lower organ weights versus the
testosterone, sc, (400 μg/rat/day) group as determined by Analysis of
Variance coupled with Duncan's Multiple Range Test.

## CC(=O)[C@H]1CC[C@H]2[C@@H]3C[C@H](C)C4=CC(=O)CC[C@]4(C)[C@H]3CC[C@]12C [6α-Methylprogesterone, reference compound]
[1]; Assay 4
  RBA: 57%

## C#C[C@]1(C(C)=O)CC[C@H]2[C@@H]3CC[C@H]4CC(=O)CC[C@@H]4[C@H]3CC[C@@]21C [17α-Ethynyl-19-nor-5α-pregnane-3,20-dione]
[1]; Assay 4
  RBA: 67%
[1]; Assay 5
  RBA: 66%

## C#C[C@]1(C(C)=O)CC[C@H]2[C@@H]3CCC4=CC(=O)CC[C@@H]4[C@H]3CC[C@@]21C [17α-Ethynyl-19-norprogesterone, 17α-ethynyl-19-nor-4-pregnene-3,20-dione]
[1]; Assay 4
  RBA: 100%
[1]; Assay 5
  RBA: 133%
[1]; compared with progesterone
  progesterone receptor binding, in words: slightly greater than that of progesterone itself
[2]; compound given orally, progesterone sc
  progestational potency relative to subcutaneous progesterone, in words: roughly comparable to subcutaneously administered progesterone
[2]; compound given sc
  progestational potency relative to progesterone (sc): about 100 times
[2]; oral, 50 μg/rabbit daily
  Uterine Weight (X ± S.D.): 1.41 ± 0.02 g
  McPhail Index (0-4) (X ± S.D.): 0.38 ± 0.27
[2]; oral, 100 μg/rabbit daily
  Uterine Weight (X ± S.D.): 1.72 ± 0.36 g
  McPhail Index (0-4) (X ± S.D.): 1.17 ± 1.10
[2]; oral, 200 μg/rabbit daily
  Uterine Weight (X ± S.D.): 1.70 ± 0.33 g
  McPhail Index (0-4) (X ± S.D.): 0.83 ± 0.72
[2]; oral, 400 μg/rabbit daily
  Uterine Weight (X ± S.D.): 3.40 ± 1.14 g
  McPhail Index (0-4) (X ± S.D.): 3.75 ± 0.10
[2]; sc, 2.5 μg/rabbit daily
  Uterine Weight (X ± S.D.): 2.64 ± 0.22 g
  McPhail Index (0-4) (X ± S.D.): 3.25 ± 0.41
[2]; sc, 5 μg/rabbit daily
  Uterine Weight (X ± S.D.): 3.55 ± 0.54 g
  McPhail Index (0-4) (X ± S.D.): 3.97 ± 0.05
[2]; sc, 10 μg/rabbit daily
  Uterine Weight (X ± S.D.): 4.57 ± 0.67 g
  McPhail Index (0-4) (X ± S.D.): 3.92 ± 0.12
[2]; sc, 20 μg/rabbit daily
  Uterine Weight (X ± S.D.): 4.94 ± 0.87 g
  McPhail Index (0-4) (X ± S.D.): 4.00 ± 0.00

## C[C@]12CC[C@H]3[C@@H](CCC4=CC(=O)CC[C@@]43C)[C@@H]1CC[C@@H]2O [Testosterone]
[3]; 25 μg/rat daily
  Levator Ani weight (X ± S.D.): 36 ± 4 mg
  Seminal Vesicles weight (X ± S.D.): 23 ± 12 mg
  Ventral Prostate weight (X ± S.D.): 18 + 5 mg
[3]; 100 μg/rat daily
  Levator Ani weight (X ± S.D.): 53 ± 6 mg
  Seminal Vesicles weight (X ± S.D.): 66 ± 6 mg
  Ventral Prostate weight (X ± S.D.): 35 ± 5 mg
[3]; 400 μg/rat daily
  Levator Ani weight (X ± S.D.): 63 ± 14 mg
  Seminal Vesicles weight (X ± S.D.): 163 ± 43 mg
  Ventral Prostate weight (X ± S.D.): 70 ± 22 mg
